Columns and labels:
hand-foot syndrome = settings: allopurinol at 3%, topical; cited from earlier work
confluent HPEK cells = test: Confluent HPEK cell viability with/without 5-FU; assay type: cell-based, human; settings: for relative cell viability (AVG): 120 hours; for Relative Protection against 5-FU toxicity / Relative Growth in the presence of 5-FU: HPEK confluent cells; for Relative Protection against 5-FU toxicity: fraction of viability loss prevented; for Relative Growth in the presence of 5-FU: viability with 5-FU divided by viability without 5-FU
Procedure: Oxypurinol and allopurinol concentrations of 0.3 mM, 1.0 mM, and 3.0 mM, which are ten times higher than those used in the first set of experiments, were tested. An adenine concentration of 0.3 mM, which was the higher concentration used in the first set of experiments, was tested. The relative viability of the cells was determined after 120 hours.

[1] = test system: mucositis toxicity of 5-FU; settings: maximally-tolerated oral dose of 800 mg/day; 5 μM of 5-FU; cited from earlier work
confluent NHEK cells = test: Confluent NHEK cell viability with/without 5-FU; assay type: cell-based, human; settings: for relative cell viability (AVG): 120 hours; for Relative Growth in the presence of 5-FU / Relative Protection against 5-FU toxicity: NHEK; for Relative Protection against 5-FU toxicity: fraction of viability loss prevented
Procedure: In yet another set of experiments, the results of which are shown in Table 4, confluent NHEK cells were exposed to the clinically-relevant dose of 10 μM of 5-FU and different concentrations of sodium hydroxide, oxypurinol, or allopurinol using standard tissue culture methods and incubated at 37° C. Sodium hydroxide concentrations of 1 mM, 2 mM, 3 mM, and 4 mM were tested. Oxypurinol and allopurinol concentrations of 0.1 mM, 0.3 mM, 1.0 mM, and 3.0 mM were tested, both in the presence and in the absence of 10 μM of 5-FU. The relative viability of the cells was determined after 120 hours. The sodium hydroxide trials were only performed to serve as a control.

Oc1ncnc2[nH]ncc12 [Allopurinol, allopurinol]
therapeutic benefit against HFS (hand-foot syndrome): did not achieve an adequate therapeutic benefit | relative cell viability (AVG) (confluent HPEK cells; 0.3 mM, no 5-FU): 1.1870 | relative cell viability (AVG) (confluent HPEK cells; 0.3 mM, with 5-FU 10 μM): 0.7303 | relative cell viability (AVG) (confluent HPEK cells; 1.0 mM, no 5-FU): 1.2411 | relative cell viability (AVG) (confluent HPEK cells; 1.0 mM, with 5-FU 10 μM): 0.7748 | relative cell viability (AVG) (confluent HPEK cells; 3.0 mM, no 5-FU): 1.0410 | relative cell viability (AVG) (confluent HPEK cells; 3.0 mM, with 5-FU 10 μM): 0.7528 | Relative Protection against 5-FU toxicity (confluent HPEK cells; 0.3 mM): 0.2464 | Relative Growth in the presence of 5-FU (confluent HPEK cells; 0.3 mM): 0.6152 | Relative Protection against 5-FU toxicity (confluent HPEK cells; 1.0 mM): 0.3709 | Relative Growth in the presence of 5-FU (confluent HPEK cells; 1.0 mM): 0.6243 | Relative Protection against 5-FU toxicity (confluent HPEK cells; 3.0 mM): 0.3092 | Relative Growth in the presence of 5-FU (confluent HPEK cells; 3.0 mM): 0.7231 | effect on cell viability in the presence of 5-FU (confluent HPEK cells; concentration range of 0.3 mM to 3.0 mM): protective effect | prevention of mucositis toxicity of 5-FU [1]: does not prevent the mucositis toxicity | effect on cell viability in the presence of 5-FU (confluent NHEK cells; 0.1 mM to 3.0 mM): protective effect for confluent NHEK cells that was generally less than oxypurinol | relative cell viability (AVG) (confluent NHEK cells; 0.1 mM, no 5-FU): 1.0426 | relative cell viability (AVG) (confluent NHEK cells; 0.1 mM, with 5-FU 10 μM): 0.6303 | relative cell viability (AVG) (confluent NHEK cells; 0.1 mM, with 5-FU 10 μM, listed as allopurinol): 0.63 | relative cell viability (AVG) (confluent NHEK cells; 0.3 mM, no 5-FU): 1.1285 | relative cell viability (AVG) (confluent NHEK cells; 0.3 mM, with 5-FU 10 μM): 0.5100 | relative cell viability (AVG) (confluent NHEK cells; 0.3 mM, with 5-FU 10 μM, listed as allopurinol): 0.51 | relative cell viability (AVG) (confluent NHEK cells; 1.0 mM, no 5-FU): 1.1137 | relative cell viability (AVG) (confluent NHEK cells; 1.0 mM, with 5-FU 10 μM): 0.4370 | relative cell viability (AVG) (confluent NHEK cells; 1.0 mM, with 5-FU 10 μM, listed as allopurinol): 0.44 | Relative Growth in the presence of 5-FU (confluent NHEK cells; 3.0 mM, FIG. 2): less than 41% | relative cell viability (AVG) (confluent NHEK cells; 3.0 mM, no 5-FU): 1.0640 | relative cell viability (AVG) (confluent NHEK cells; 3.0 mM, with 5-FU 10 μM): 0.4348 | relative cell viability (AVG) (confluent NHEK cells; 3.0 mM, with 5-FU 10 μM, listed as allopurinol): 0.44 | Relative Protection against 5-FU toxicity (confluent NHEK cells; 0.1 mM): 0.3664 | Relative Growth in the presence of 5-FU (confluent NHEK cells; 0.1 mM, viability with 5-FU divided by viability without 5-FU): 0.6045 | Relative Protection against 5-FU toxicity (confluent NHEK cells; 0.3 mM): 0.1603 | Relative Growth in the presence of 5-FU (confluent NHEK cells; 0.3 mM, viability with 5-FU divided by viability without 5-FU): 0.4519 | Relative Protection against 5-FU toxicity (confluent NHEK cells; 1.0 mM): 0.0352 | Relative Growth in the presence of 5-FU (confluent NHEK cells; 1.0 mM, viability with 5-FU divided by viability without 5-FU): 0.3924 | Relative Protection against 5-FU toxicity (confluent NHEK cells; 3.0 mM): 0.0314 | Relative Growth in the presence of 5-FU (confluent NHEK cells; 3.0 mM, viability with 5-FU divided by viability without 5-FU): 0.4086 | effect on cell viability in the absence of 5-FU (confluent NHEK cells; range of 0.1 mM to 3.0 mM): small positive effect

— patent US20200046703A1, “COMPOSITIONS AND METHODS FOR TREATMENT OF THE SIDE-EFFECTS ASSOCIATED WITH ADMINISTRATION OF THERAPEUTIC AGENTS” (ASYMMETRIC THERAPEUTICS, LLC, priority 2018, published 2020)
